According to US4599352A, “Antineoplastic platinum (IV) complexes and compositions” (priority 1984, dated 1986):

How the values were obtained:
[1] = test system: SC Implanted L1210 Leukemia; experiment: Activity against SC implanted L1210 leukemia following intravenous administration, once daily Days 1-5 (Table 5); assay type: in vivo, CD2Fl male mice; conditions: for Body Weight Difference / Median % T/C / Median Survival Time: 5 mg/kg/inj IV
Method: (§1) Biological properties of the compounds of the present invention were determined following the protocol described in Cancer Chemotherapy Reports, Vol. 3, No. 3, 1972 which report is incorporated herein by reference.
In another type of experiment the same platinum complexes were directly compared against the SC implanted L1210 following intravenous administration (Table 5).
This experiment (A8-00004 3LE32) was conducted at the Southern Research Institute, Birmingham, Ala. under the supervision of Dr. Daniel Griswold. The protocols were the same as those published previously (Attachment 11). 10^6 cells were implanted subcutaneously in CD2Fl male mice on Day 0. Drug treatments were given intravenously once daily at the doses indicated on Days 1-5 after tumor implantation. The dosage range tested included the highest and lowest doses indicated in the Table as well as intermediate values which were determined by multiplying each dose in turn by 0.5 starting with the highest dose. The diluent was saline except for NSC-271674 for which 5% sodium bicarbonate was used. All drugs were prepared fresh on the day of injection, and all were administered in solution. Median survival times for both control and drug-treated mice were determined and expressed as a percentage (% T/C). Body weights were determined on Day 5 and expressed as a weight difference (body weight of the drug-treated animals minus that of the control animals in grams) (T-C).

IP L1210 = experiment: Activity against IP-implanted L1210 leukemia sensitive to cisplatin, 60 day test (Table 4); assay type: in vivo, Female CD2Fl mice
Method: as §1
(§2) Other known mechanisms of resistance for other classes of agents, such as gene amplification or target enzyme change or amplication, also need to be explored. The experiments summarized in Table 3 were conducted at the same time against both sublines using the same drug preparations. […] These experiments were repeated in a second laboratory as documented in Table 4. However, in these experiments the animals were held for 60 rather than 30 days to evaluate whether or not long-term survivors are produced after drug treatment in a more challenging setting.
This experiment (A8-00005 3LE31) was conducted at the Southern Research Institute, Birmingham, Ala. under the supervision of Dr. Daniel Griswold. The protocols were the same as those published previously (Geran et al., Cancer Chemotherapy Reports 3: No. 2, 1972 [Attachment 11]). 10^5 cells were implanted intraperitoneally in CD2Fl male mice on Day 0. Drug treatments were given intraperitoneally as single injections at the doses indicated on Days 1, 5 and 9 after tumor implantation. The diluent was saline except for NSC-271674 where 5% sodium bicarbonate was used. All drugs were prepared fresh on the day of injection, and all were administered in solution. Median survival times for both control and drug-treated mice were determined and expressed as a percentage (% T/C). Body weights were determined on Day 5 and expressed as a weight difference (body weight of the drug-treated animals minus that of the control animals in grams) (T-C). The diluent control animals lived a median of 8.4 days and gained 1.9 grams by Day 5 in this experiment. All animals, including Day 30 survivors, were used in the calculation of median survival times. The log10 change in tumor burden refers to the net log change in viable tumor cell population at the end of therapy (Rx) as compared to the start of therapy; e.g., a […] means that there was a […] and a 3 log change means there was a 1000-fold increase in tumor burden at the end of therapy. The tumor burden at the start of therapy was about 6.1×10^5 cells in this experiment.
(§3) These experiments (23-00081 3LE31 and 23-00003 3DP3l) were conducted concurrently at the Mason Research Institute, Worcester, MA under the supervision of Dr. William Cobb. See Table 4 for experimental details. The diluent control animals bearing L1210 leukemia lived a median of 8.3 days and gained 1.6 grams by Day 5. […] Female CD2Fl mice were used for these experiments.

[2] = test system: IP-Implanted L1210/Cisplatin; experiment: Comparison of isomers: long term survivors and weight differences in treating IP-implanted L1210/Cisplatin (Table 6); assay type: in vivo, mice
From the text: Comparative data for the others are as follows: 27 for trans d, 27 for trans d l and 13 for cis. […] The higher the ratio the more convenient it is to prepare a formulation for intravenous administration to patients which is shown in Table 7.

IP L1210/Cisplatin = experiment: Activity against IP-implanted L1210/Cisplatin leukemia resistant to cisplatin, 60 day test (Table 4); assay type: in vivo, Female CD2Fl mice
Method: as §1
as §2, with “setting. […]” for “setting.”
as §3

Compound	Body Weight Difference [1] [Grams]	Median % T/C [1] [%]	Median Survival Time [1] [days]	Optimal Dose ([1]; IV once daily Days 1-5) [mg/kg/inj]	60 Day Survivors/Total (IP L1210; 2 mg/kg/dose)	Body Weight Difference (IP L1210; 2 mg/kg/dose) [Grams]	Median % T/C (IP L1210; 2 mg/kg/dose) [%]	60 Day Survivors/Total (IP L1210; 4 mg/kg/dose)	Body Weight Difference (IP L1210; 4 mg/kg/dose) [Grams]	Median % T/C (IP L1210; 4 mg/kg/dose) [%]	60 Day Survivors/Total (IP L1210; 8 mg/kg/dose)	Median % T/C (IP L1210; 8 mg/kg/dose) [%]	60 Day Survivors/Total (IP L1210; 16 mg/kg/dose)	Body Weight Difference (IP L1210; 16 mg/kg/dose) [Grams]	Median % T/C (IP L1210; 16 mg/kg/dose)	Total Grams of Weight Difference [2] [Grams]	Total number of long-term survivors [2]	60 Day Survivors/Total (IP L1210/Cisplatin; 2 mg/kg/dose)	Body Weight Difference (IP L1210/Cisplatin; 2 mg/kg/dose) [Grams]	Median % T/C (IP L1210/Cisplatin; 2 mg/kg/dose) [%]	other results
[Cl][Pt-2]1([Cl])([Cl])([Cl])[NH2+][C@H]2CCCC[C@@H]2[NH2+]1 [trans (d), (1S, 2S)-Tetrachloro-trans-1,2-cyclohexanediamine platinum (IV)]	-6.4	172	17.8	5.0	3/10	-1.0	216	0/10	-1.2	202	3/10	301	0/10	-7.0	Toxic	-11.9	11	0/10	-0.2	147	HNTD (highest nontoxic dose; animal weight difference ≥ -4.0 grams) ([1]; IV once daily Days 1-5): 2.5 mg/kg/inj; 60 Day Survivors/Total (IP L1210; 1 mg/kg/dose): 0/10; Body Weight Difference (IP L1210; 1 mg/kg/dose): -0.6 Grams; Median % T/C (IP L1210; 1 mg/kg/dose): 144%; Body Weight Difference (IP L1210; 8 mg/kg/dose): -3.1 Grams; 60 Day Survivors/Total (IP L1210/Cisplatin; 1 mg/kg/dose): 0/10; Body Weight Difference (IP L1210/Cisplatin; 1 mg/kg/dose): -0.4 Grams; Median % T/C (IP L1210/Cisplatin; 1 mg/kg/dose): 125%; 60 Day Survivors/Total (IP L1210/Cisplatin; 4 mg/kg/dose): 6/10; Body Weight Difference (IP L1210/Cisplatin; 4 mg/kg/dose): -1.4 Grams; Median % T/C (IP L1210/Cisplatin; 4 mg/kg/dose): 645%; 60 Day Survivors/Total (IP L1210/Cisplatin; 8 mg/kg/dose): 1/10; Body Weight Difference (IP L1210/Cisplatin; 8 mg/kg/dose): -4.8 Grams; Median % T/C (IP L1210/Cisplatin; 8 mg/kg/dose): 193%; 60 Day Survivors/Total (IP L1210/Cisplatin; 16 mg/kg/dose): 0/10; Body Weight Difference (IP L1210/Cisplatin; 16 mg/kg/dose): -6.1 Grams; Median % T/C (IP L1210/Cisplatin; 16 mg/kg/dose): Toxic
Tetrachloro-cis-1,2-cyclohexanediamine platinum (IV)	-3.3	133	13.7	5.0	0/10	-0.9	143	2/10	-0.9	250	2/10	313	0/10	-5.6	98%	-5.6	4	0/10	-0.3	121	60 Day Survivors/Total (IP L1210; 32 mg/kg/dose): 0/10; Body Weight Difference (IP L1210; 32 mg/kg/dose): -5.6 Grams; Median % T/C (IP L1210; 32 mg/kg/dose): Toxic; Ratio of 2/1 (weight difference / long-term survivors) [2]: 1.40; 60 Day Survivors/Total (IP L1210/Cisplatin; 4 mg/kg/dose): 0/10; Body Weight Difference (IP L1210/Cisplatin; 4 mg/kg/dose): 0.0 Grams; Median % T/C (IP L1210/Cisplatin; 4 mg/kg/dose): 130%; 60 Day Survivors/Total (IP L1210/Cisplatin; 8 mg/kg/dose): 1/10; Body Weight Difference (IP L1210/Cisplatin; 8 mg/kg/dose): -2.7 Grams; Median % T/C (IP L1210/Cisplatin; 8 mg/kg/dose): 191%; 60 Day Survivors/Total (IP L1210/Cisplatin; 16 mg/kg/dose): 0/10; Body Weight Difference (IP L1210/Cisplatin; 16 mg/kg/dose): -5.4 Grams; Median % T/C (IP L1210/Cisplatin; 16 mg/kg/dose): Toxic; 60 Day Survivors/Total (IP L1210/Cisplatin; 32 mg/kg/dose): 0/10; Body Weight Difference (IP L1210/Cisplatin; 32 mg/kg/dose): -5.1 Grams; Median % T/C (IP L1210/Cisplatin; 32 mg/kg/dose): Toxic; 60-day (long term) survivors (IP L1210/Cisplatin; L1210/cisplatin, tolerated doses): only one long term survivor
